Results from ChEMBL document CHEMBL5335789, “Tea-break with epigallocatechin gallate derivatives - Powerful polyphenols of great potential for medicine” (Eur J Med Chem, 2023).

Experiments:
MDA-MB-231 [1] = experiment: Anticancer activity against human MDA-MB-231 cells assessed as reduction in cell viability measured after 72 hrs by MTT assay; assay type: functional
Jurkat = experiment: Antiproliferative activity against human Jurkat T cells assessed as inhibition of cell growth at 50 uM incubated for 24 hrs relative to control; assay type: functional; set-up: scale not given: the % may be the effect or the level left
U-937 [2] = experiment: Antiproliferative activity against human U-937 cells assessed as cell growth inhibition measured after 72 hrs; assay type: functional, cell-based; conditions: U-937, 72 h
U-937 [3] = experiment: Antiproliferative activity against human U-937 cells measured upto 72 hrs; assay type: functional, cell-based; conditions: U-937, 72 h
MCF7 [4] = experiment: Antiproliferative activity against human MCF7 cells assessed as reduction in cell viability incubated for 72 hrs by MTT assay; assay type: functional, cell-based; conditions: MCF7, 72 h
MDA-MB-231 [5] = experiment: Cytotoxicity against human MDA-MB-231 cells assessed as cell growth inhibition incubated for 48 hrs by SRB assay; assay type: functional, cell-based; conditions: MDA-MB-231, 48 h
HCC827 = experiment: Antiproliferative activity against human HCC827 cells assessed as reduction in cell viability incubated for 72 hrs by MTT assay; assay type: functional, cell-based; conditions: HCC827, 72 h
NSCLC = experiment: Antiproliferative activity against human NSCLC cells assessed as cell growth inhibition incubated for 72 hrs by MTT assay; assay type: functional, cell-based
HCT-116 [6] = experiment: Antiproliferative activity against human HCT-116 cells assessed as reduction in cell viability incubated for 24 hrs by MTT assay; assay type: functional, cell-based; conditions: HCT-116, 24 h
MDA-MB-231 [7] = experiment: Antitumor activity against human MDA-MB-231 cells xenografted in athymic nude mouse assessed as the inhibition of tumor growth at 50 mg/kg, sc administered daily once for 31 days relative to control; assay type: functional; set-up: scale not given: the % may be the effect or the level left; conditions: time 31 day
KB = experiment: Antitumor activity against human KB cells assessed as inhibition of cell growth measured upto 96 hrs in presence of thymidine by Cell titer blue assay; assay type: functional; set-up: scale not given: the % may be the effect or the level left
[8] = biological target: MAP kinase p38 (Homo sapiens) (UniProt O15264+Q15759+Q16539+P53778); experiment: Inhibition of p38-MAPK (unknown origin) at 30 uM relative to control; assay type: protein assay
[9] = Inhibition of ERK (unknown origin) at 100 uM by western blot assay relative to control; conditions: Homo sapiens
Homo sapiens = species on record: Homo sapiens; experiment: Inhibition of PI3K/AKT/NF-kappaB (unknown origin) at 30 uM relative to control
MDA-MB-231 [10] = experiment: Inhibition of cell adhesion in human MDA-MB-231 cells assessed as reduction in cell adhesion at 10 uM relative to control; assay type: functional; set-up: scale not given: the % may be the effect or the level left
MDA-MB-231 [11] = experiment: Inhibition of cell invasion of human MDA-MB-231 cells at 10 uM incubated for 24 hrs by crystal violet staining based analysis; assay type: functional; set-up: scale not given: the % may be the effect or the level left
MDA-MB-231 [12] = experiment: Inhibition of cell migration in human MDA-MB-231 cells measured upto 48 hrs by transwell chamber assay relative to control; assay type: functional; set-up: scale not given: the % may be the effect or the level left
[13] = Inhibition of Streptococcus sobrinus glycosyl transferase
SK-BR-3 [14] = experiment: Antiproliferative activity against human SK-BR-3 cells assessed as inhibition of cell proliferation incubated for 3 days by sulforhodamine B colorimetric assay; assay type: functional, cell-based; conditions: SK-BR-3, 72 h
HCT-116 [15] = experiment: Cytotoxicity against human HCT-116 cells assessed as reduction in cell growth measured after 24 hrs by MTT assay; assay type: functional, cell-based; conditions: HCT-116, 24 h
PANC-1 = experiment: Cytotoxicity against human PANC-1 cells assessed as reduction in cell viability measured after 24 hrs by MTT assay; assay type: functional, cell-based; conditions: PANC-1, 24 h
A-431 = experiment: Cytotoxicity against human A-431 cells assessed as reduction in cell growth measured after 24 hrs by MTT assay; assay type: functional, cell-based; conditions: A-431, 24 h
SK-OV-3 = experiment: Cytotoxicity against human SK-OV-3 cells assessed as reduction in cell growth measured after 24 hrs by MTT assay; assay type: functional, cell-based; conditions: SK-OV-3, 24 h
MCF7 [16] = experiment: Cytotoxicity against human MCF7 cells assessed as reduction in cell growth incubated for 24 hrs by MTT assay; assay type: functional, cell-based; conditions: MCF7, 24 h
NCI-H460 = experiment: Cytotoxicity against human NCI-H460 cells assessed as reduction in cell viability incubated for 24 hrs by MTT assay; assay type: functional, cell-based; conditions: NCI-H460, 24 h
SK-BR-3 [17] = experiment: Cytotoxicity against human SK-BR-3 cells assessed as reduction in cell growth incubated for 24 hrs by MTT assay; assay type: functional, cell-based; conditions: SK-BR-3, 24 h
ZR-75-1 = experiment: Cytotoxicity against human ZR-75-1 cells assessed as reduction in cell viability incubated for 24 hrs by MTT assay; assay type: functional, cell-based; conditions: ZR-75-1, 24 h
MDA-MB-231 [18] = experiment: Cytotoxicity against human MDA-MB-231 cells assessed as reduction in cell viability incubated for 24 hrs by MTT assay; assay type: functional, cell-based; conditions: MDA-MB-231, 24 h
LNCaP = experiment: Antiproliferative activity against human LNCaP assessed as reduction in cell viability incubated for 72 hrs by MTT assay; assay type: functional, cell-based
NCI-H441 = experiment: Antiproliferative activity against human NCI-H441 cells assessed as reduction in cell viability incubated for 48 hrs by WST-8 assay; assay type: functional, cell-based; conditions: NCI-H441, 48 h
A549 = experiment: Antiproliferative activity against human A549 cells expressing wild type EGFR assessed as reduction in cell viability incubated for 48 hrs by MTT assay; assay type: functional, cell-based; conditions: A549, 48 h

## CC(=O)Oc1cc(OC(C)=O)c2c(c1)O[C@H](c1cc(OC(C)=O)c(OC(C)=O)c(OC(C)=O)c1)[C@H](OC(=O)c1ccc(F)c(F)c1)C2
MDA-MB-231 [1]
  Activity: 33%
Jurkat
  Activity: 90%

## O=C(Nc1ccccc1NC(=O)c1ccc(O)c(O)c1)c1ccc(O)c(O)c1
U-937 [2]
  IC50: 25 µM
U-937 [3]
  IC50: 0.72 µM

## COc1cc(OC)c2c(c1)OC(c1ccccc1)[C@H](OC(=O)c1ccc(OC(C)=O)c(CC=C(C)C)c1)C2 (stereo partly drawn)
MCF7 [4]
  IC50: 3.99 µM

## O=C(Oc1cc(O)cc2ccccc12)c1cc(O)c(O)c(O)c1
MDA-MB-231 [5]
  IC50: 79 µM

## O=C(Oc1cc(OC(=O)c2cc(O)c(O)c(O)c2)c2ccccc2c1)c1cc(O)c(O)c(O)c1
MDA-MB-231 [5]
  IC50: 77 µM

## O=C(Oc1cc(O)c2ccccc2c1)c1cc(O)c(O)c(O)c1
MDA-MB-231 [5]
  IC50: 41 µM

## COC(=O)c1c(O)cc2c(c1O)C[C@@H](OC(=O)c1cc(O)c(O)c(O)c1)[C@@H](c1cc(O)c(O)c(O)c1)O2
HCC827
  IC50: ~20 µM
NSCLC
  IC50: ~20 µM

## O=C(Nc1cccc(NC(=O)c2cccc(O)c2O)c1)c1cccc(O)c1O
U-937 [2]
  IC50: 1.7 µM
U-937 [3]
  IC50: 0.67 µM

## O=C(O[C@@H]1Cc2c(O)cc(O)cc2O[C@@H]1c1cc(O)c(=O)c2c(O)c(O)cc([C@H]3Oc4cc(O)cc(O)c4C[C@H]3OC(=O)c3cc(O)c(O)c(O)c3)c2c1)c1cc(O)c(O)c(O)c1 [THEAFLAVIN DIGALLATE]
HCT-116 [6]
  IC50: 120 µM

## CC(=O)Oc1cc(OC(C)=O)c2c(c1)O[C@H](c1cc(OC(C)=O)c(OC(C)=O)c(OC(C)=O)c1)[C@H](OC(=O)c1cc(OC(C)=O)c(OC(C)=O)c(OC(C)=O)c1)C2
MDA-MB-231 [7]
  Activity: 54%

## O=C(O[C@@H]1Cc2c(O)cc(O)cc2O[C@@H]1c1cc(O)c(O)c(O)c1)c1cc(O)c(O)c(O)c1 [EPIGALOCATECHIN GALLATE]
KB
  Activity: 70%
[8]
  inhibition: 45%
[9]
  inhibition: 25%
Homo sapiens
  inhibition: 25%
MDA-MB-231 [10]
  Activity: 40%
MDA-MB-231 [11]
  Activity: 56%
MDA-MB-231 [12]
  Activity: 40%
MDA-MB-231 [5]
  IC50: 149 µM
[13]
  IC50: 89.5 µM

## O=C(Oc1ccc(OC(=O)c2cc(O)c(O)c(O)c2)c2ccccc12)c1cc(O)c(O)c(O)c1
MDA-MB-231 [5]
  IC50: 104 µM

## O=C(Oc1ccc(-c2ccc(OC(=O)c3cc(O)c(O)c(O)c3)cc2)cc1)c1cc(O)c(O)c(O)c1
SK-BR-3 [14]
  IC50: 10 µM
HCT-116 [15]
  IC50: 10 µM
PANC-1
  IC50: 10 µM
A-431
  IC50: 10 µM
SK-OV-3
  IC50: 10 µM
MCF7 [16]
  IC50: 10 µM
NCI-H460
  IC50: 10 µM
SK-BR-3 [17]
  IC50: 2 µM
ZR-75-1
  IC50: 2 µM
MDA-MB-231 [18]
  IC50: 2 µM
MDA-MB-231 [5]
  IC50: 45 µM

## O=C(O[C@@H]1Cc2c(F)cc(F)cc2O[C@@H]1c1ccc(O)c(O)c1)c1cc(O)c(O)c(O)c1
LNCaP
  IC50: 13 µM

## O=C(O[C@@H]1Cc2c(OCc3cnnn3[C@H]3O[C@H](CO)[C@@H](O)[C@H](O)[C@H]3O)cc(O)cc2O[C@@H]1c1cc(O)c(O)c(O)c1)c1cc(O)c(O)c(O)c1
NCI-H441
  IC50: 100 µM
A549
  IC50: 30 µM
